# Source: patent US8629272B2, “Tricyclic pyrimidine derivatives as wnt antagonists” (Deutsches Krebsforschungszentrum, priority 2009, dated 2014)
# Experiments:
# Type in all cases: cell-based
# human fibroblasts HS-68 = experiment: Cell line specific cytotoxicity, count of Hoechst labeled nuclei, normal cells HS68
# Experimental: For examination of cell line-specific cytotoxicity, compounds were applied to human colorectal cancer cells (HCT116, denoted (1); SW480, denoted (2); Dld-1, denoted (3)) and human fibroblasts (HFF-1, denoted (4); HS-68, denoted (5)), cultured in Mc Coy's (1) and Dulbecco's Modified Eagles Medium (2-5), supplemented with 10% ((1)-(3)) and 20% ((4), (5)) fetal calf serum and 1% penicillin/streptomycin. Cells were grown in T75 flasks at 37° C., 5% CO2 and trypsinized when 60-80% confluent by adding 2 ml of 0.25% Trypsin-EDTA solution. Cells were then re-suspended into culture medium and approx. 750 cells, suspended in 45 microl medium, were plated into each well of a black 384-well plate for fluorescence imaging experiments. […] Compound incubation was terminated by (a) fixation and (b) permeabilisation of cells, followed by (c) fluorescence labeling of cell nuclei for cytometric quantification or by immunocytochemistry for microscopic evaluation of cell morphology. The three steps were performed by replacing the solution of the previous step in each well of a 384-well plate by (a) 30 microl PBS (phosphate buffered saline) containing 5% PFA (paraformaldehyde), (b) 30 microl PBS containing 0.2% TritonX-100 and (c) 10 microl PBS containing Hoechst-33342 for cytometry or Hoechst-33342, FITC (fluorescein isothiocyanate-) labeled α-tubulin antibodies and TRITC-(tetramethylrhodamine isothiocyanate-) labeled phalloidin antibodies for microscopy. Solutions were incubated for 15 (a,b) and 30 min (c) in the dark at room temperature. Cells were washed twice between each step with 30 microl PBS. The assay system was miniaturized and adapted to automated workflow using liquid-handling robotics.
# Cell line-specific cytotoxicity was quantified by counting the number of Hoechst labeled nuclei per well of a 384-well plate using a plate cytometer. Data obtained with the cytometer was analysed using standard data analysis software. […]
# Hek293T = experiment: Cytotoxicity in Hek293T, CellTiterGlo; conditions: 24 h
# Experimental: For examination of cytotoxicity in these cancer cell lines the commercial available CellTiterGlo® Reagent (Promega, USA) was used according to the manufactor. Compounds were applied to Hek293T (denoted (1)) or HepG2 (denoted (2)), cultured in Dulbecco's Modified Eagles Medium, supplemented with 10% fetal calf serum and 1% penicillin/streptomycin. Cells were grown in T75 flasks at 37° C., 5% CO2 and trypsinized when 60-80% confluent by adding 2 ml of 0.25% Trypsin-EDTA solution. Cells were then re-suspended into culture medium yielding approx. 4000 cells (1) or 4500 cells (2), suspended in 30 microl medium. 48 h after cell seeding, compounds were added to yield the desired final concentrations. 24 h after compound addition cytotoxicity was evaluated. For this purpose the media was removed and CellTiterGlo® was added according to the manufactors manual. In this assay the luciferase emission readout is directly correlated with the cellular amount of ATP, low luciferase emission thus is reflecting cytotoxicity of a compound. For the evaluation of the IC50 the compound was applied in increasing concentrations yielding final concentrations per well of 5 nM-100 microM.
# [1] = test system: human colon carcinoma cells HCT116; experiment: Antiproliferative activity against HCT116, cell count
# Experimental: For examination of cell line-specific cytotoxicity, compounds were applied to human colorectal cancer cells (HCT116, denoted (1); SW480, denoted (2); Dld-1, denoted (3)) and human fibroblasts (HFF-1, denoted (4); HS-68, denoted (5)), cultured in Mc Coy's (1) and Dulbecco's Modified Eagles Medium (2-5), supplemented with 10% ((1)-(3)) and 20% ((4), (5)) fetal calf serum and 1% penicillin/streptomycin. Cells were grown in T75 flasks at 37° C., 5% CO2 and trypsinized when 60-80% confluent by adding 2 ml of 0.25% Trypsin-EDTA solution. Cells were then re-suspended into culture medium and approx. 750 cells, suspended in 45 microl medium, were plated into each well of a black 384-well plate for fluorescence imaging experiments. 24-36 hr later 5 microl compound solution (100 microM compound dissolved in ultra pure water containing 1% DMSO), were added to achieve a final concentration of 10 microM and were incubated for at least 72 hr. Compound incubation was terminated by (a) fixation and (b) permeabilisation of cells, followed by (c) fluorescence labeling of cell nuclei for cytometric quantification or by immunocytochemistry for microscopic evaluation of cell morphology. The three steps were performed by replacing the solution of the previous step in each well of a 384-well plate by (a) 30 microl PBS (phosphate buffered saline) containing 5% PFA (paraformaldehyde), (b) 30 microl PBS containing 0.2% TritonX-100 and (c) 10 microl PBS containing Hoechst-33342 for cytometry or Hoechst-33342, FITC (fluorescein isothiocyanate-) labeled α-tubulin antibodies and TRITC-(tetramethylrhodamine isothiocyanate-) labeled phalloidin antibodies for microscopy. Solutions were incubated for 15 (a,b) and 30 min (c) in the dark at room temperature. Cells were washed twice between each step with 30 microl PBS. The assay system was miniaturized and adapted to automated workflow using liquid-handling robotics.
# Cell line-specific cytotoxicity was quantified by counting the number of Hoechst labeled nuclei per well of a 384-well plate using a plate cytometer. Data obtained with the cytometer was analysed using standard data analysis software.
# The examination of the antiproliferative activity against human colon carcinoma cells HCT116 was carried out in analogy to example 35. […] Compounds of the present invention have potent antiproliferative activity against human colon carcinoma cells as shown for HCT116 in Table 6.
SMILES,Normalized cell count (HS68) (human fibroblasts HS-68; 0.005 micoM),Normalized cell count (HS68) (human fibroblasts HS-68; 0.015 micoM),Normalized cell count (HS68) (human fibroblasts HS-68; 0.046 micoM),Normalized cell count (HS68) (human fibroblasts HS-68; 0.137 micoM),Normalized cell count (HS68) (human fibroblasts HS-68; 0.412 micoM),Normalized cell count (HS68) (human fibroblasts HS-68; 1.235 micoM),Normalized cell count (HS68) (human fibroblasts HS-68; 3.704 micoM),Normalized cell count (HS68) (human fibroblasts HS-68; 11.111 micoM),Normalized cell count (HS68) (human fibroblasts HS-68; 33.333 micoM),Normalized cell count (HS68) (human fibroblasts HS-68; 100.000 micoM),Normalized toxicity values (Hek293T) (Hek293T; 0.005 microM),Normalized toxicity values (Hek293T) (Hek293T; 0.015 microM),Normalized toxicity values (Hek293T) (Hek293T; 0.046 microM),Normalized toxicity values (Hek293T) (Hek293T; 0.137 microM),Normalized toxicity values (Hek293T) (Hek293T; 0.412 microM),Normalized toxicity values (Hek293T) (Hek293T; 1.235 microM),Normalized toxicity values (Hek293T) (Hek293T; 3.704 microM),Normalized toxicity values (Hek293T) (Hek293T; 11.111 microM),Normalized toxicity values (Hek293T) (Hek293T; 33.333 microM),Normalized toxicity values (Hek293T) (Hek293T; 100.000 microM),further results
"CCOC(=O)C1=C(C)Nc2c(c3nnc(-c4cccc(OC)c4)n3c(=O)n2-c2ccccc2)C1c1ccccc1 (stereo not drawn) [Example 15, 3-(3-Methoxy-phenyl)-7-methyl-4-oxo-5,9-diphenyl-4,5,6,9-tetrahydro-1,2,3a,5,6-pentaaza-cyclopenta[a]naphthalene-8-carboxylic acid ethyl ester]",1,0.9166,1.018,0.9967,0.9484,0.961,0.9772,0.9757,0.9593,0.9099,1.1205,1.0500,1.2200,0.9283,0.9603,0.8915,1.0113,1.1550,1.0515,1.4175,Normalized cell count (HCT 116) ([1]; 0.005 microM): 1; Normalized cell count (HCT 116) ([1]; 0.015 microM): 1.039; Normalized cell count (HCT 116) ([1]; 0.046 microM): 1.013; Normalized cell count (HCT 116) ([1]; 0.137 microM): 0.9313; Normalized cell count (HCT 116) ([1]; 0.412 microM): 0.9219; Normalized cell count (HCT 116) ([1]; 1.235 microM): 0.865; Normalized cell count (HCT 116) ([1]; 3.704 microM): 0.7235; Normalized cell count (HCT 116) ([1]; 11.111 microM): 0.2716; Normalized cell count (HCT 116) ([1]; 33.333 microM): 0.257; Normalized cell count (HCT 116) ([1]; 100.000 microM): 0.1496
CCOC(=O)C1=C(c2ccccc2)c2c(n(-c3ccccc3)c(=O)n3c(-c4ccc(OC)cc4)nnc23)NC1C (stereo not drawn) [Example 18],1,0.9938,1.014,0.9488,0.9736,1.014,0.7952,0.5499,0.3651,0.4385,1.1075,1.0110,1.0523,1.0088,1.0313,1.0733,1.1200,1.0825,1.1175,0.9883,Normalized cell count (HCT 116) ([1]; 0.005 microM): 1; Normalized cell count (HCT 116) ([1]; 0.015 microM): 0.9377; Normalized cell count (HCT 116) ([1]; 0.046 microM): 0.9859; Normalized cell count (HCT 116) ([1]; 0.137 microM): 0.8603; Normalized cell count (HCT 116) ([1]; 0.412 microM): 0.9166; Normalized cell count (HCT 116) ([1]; 1.235 microM): 0.8399; Normalized cell count (HCT 116) ([1]; 3.704 microM): 0.4154; Normalized cell count (HCT 116) ([1]; 11.111 microM): 0.1595; Normalized cell count (HCT 116) ([1]; 33.333 microM): 0.1555; Normalized cell count (HCT 116) ([1]; 100.000 microM): 0.1892
"CCOC(=O)C1=C(c2ccccc2)c2c(n(-c3ccccc3)c(=O)n3c(-c4cccc(OC)c4)nnc23)NC1C (stereo not drawn) [Example 16, 3-(3-Methoxy-phenyl)-7-methyl-4-oxo-5,9-diphenyl-4,5,6,7-tetrahydro-1,2,3a,5,6-pentaaza-cyclopenta[a]naphthalene-8-carboxylic acid ethyl ester]",1,0.9904,1.038,1.056,1.111,1.051,1.175,1.144,0.8005,0.9046,1.0215,0.8660,0.8370,0.8375,0.8593,0.8530,0.8778,0.9213,0.9450,0.9233,Normalized cell count (HCT 116) ([1]; 0.005 microM): 1; Normalized cell count (HCT 116) ([1]; 0.015 microM): 1.063; Normalized cell count (HCT 116) ([1]; 0.046 microM): 1.163; Normalized cell count (HCT 116) ([1]; 0.137 microM): 1.06; Normalized cell count (HCT 116) ([1]; 0.412 microM): 1.067; Normalized cell count (HCT 116) ([1]; 1.235 microM): 1.125; Normalized cell count (HCT 116) ([1]; 3.704 microM): 1.2; Normalized cell count (HCT 116) ([1]; 11.111 microM): 1.231; Normalized cell count (HCT 116) ([1]; 33.333 microM): 0.52; Normalized cell count (HCT 116) ([1]; 100.000 microM): 0.5801
